Patent publication US20080254017A1, “Methods and compositions for treating symptomes of diseases related to imbalance of essential fatty acids” (priority 2006, published 2008)
Where two headings read alike, the source gives them in different places.

Columns and labels:
[1] = test system: subjects with autistic spectrum disorder; assay type: in vivo
From the text: The systemic nature of Autistic Spectrum Disorder (ASD) and the pervasive developmental delay (PDD) that may accompany it has led the inventor of the invention to view the complexity of these presentations by addressing them from a cell membrane perspective. Autistic spectrum disorder is a complex neurodevelopmental disorder, which has been investigated under an open clinical study rather than randomized, placebo, controlled and double blinded studies due to the constellation of symptoms in autistic spectrum disorder and multiple variables in regard to the oral and IV intervention. Each subject served as his or her own control for several reasons, 1) control pediatric subjects are difficult to obtain due to the use of intravenous therapy, 2) compliance in regard to a restricted carbohydrate diet and oral intake of supplements is limited in controls, and 3) matching two subjects with the same diagnosis, gender, age, development, metabolism and presentation is unrealistic in regard to autism and PDD. Presently there are no biological markers that exist to identify autistic spectrum disorder in addition to speculation that multiple, variable susceptibility genes, epigenetic effects, and environmental factors complicate the disorder we term autism.
The case studies represented below present the result of the treatment regimen on 300 subjects studied. Phospholipid re-modeling of these subjects were stimulated by supplying oral or IV phospholipids, principally PC, as well as balanced essential fatty acids and catalysts via nutritional and phamaneutical interventions.
A butterfly catheter with a 23-gauge needle was inserted into a vein of the antecubital region of one of the subjects' arms. A syringe containing the PC (phosphatidylcholine) composition in about 5 to about 10 cc volume was connected to the catheter by a flexible tube. A volume of blood equal to the total volume of the PC composition was drawn into the syringe and the syringe was gently agitated to mix the blood and PC composition. The blood/PC composition mixture was then infused (or “pushed”) as a lipid exchange into the subject over a period of two to three minutes.
A butterfly catheter with a 23-gauge needle was inserted into a vein of the antecubital region of one of the subjects' arms. The PC composition was infused first followed by a pre-prepared syringe containing about 2 mg (0.2 cc) to about 5 mg (0.5 cc) of Leucovorin over the period of 2-3 minutes.
A butterfly catheter with a 23-gauge needle was inserted into a vein of the antecubital region of one of the subjects' arms. The PC and Leucovorin compositions were infused first followed by a pre-prepared syringe containing about 1.5 to 6 cc of glutathione generally pre-mixed with an equal portion of sterile water (not saline). The composition containing glutathione was followed the IV PC with a pre-prepared syringe of glutathione using the same needle. This procedure avoids re-sticking the patient by infusing first the PC, then the Leucovorin and then the glutathione using the same butterfly catheter with a flexible tube infused (or “pushed”) into the subject over a period of two to five minutes.

[2] = L-Glutathione capsules, stomach acid; cited from earlier work
[3] = cited from earlier work
[4] = IV bolus doses of 7 grams, 14 grams and 21 grams; cited from earlier work
[5] = test system: mouse model of Bulbar ALS; conditions: oral administration; cited from earlier work

## O=C(O)[C@@H](S)[C@@H](S)C(=O)O [DMSA, meso-2,3-dimercaptosuccinic acid]
[1]; Case Study Seven, 13 months of oral dosing by another physician
  adverse outcome: increased left side weakness

## N[C@@H](CCC(=O)N[C@@H](CS)C(=O)NCC(=O)O)C(=O)O [Glutathione, N—(N-L-gamma-glutamyl-L-cysteinyl) glycine]
[2]
  stability when taken orally: very unstable and is destroyed by the stomach acid before it can be absorbed

## Phosphatidylcholine
[3]; taken orally with meals
  oral absorption: up to 90 % per 24 hrs
[3]; taken orally
  time over which blood levels peak: 8 to 12 h
[4]
  side effects: no side effects were observed
[1]; Case Study Five, 2 grams then 3 grams on consecutive weeks dripped over 3 hours
  clinical response: increased awareness/communication
[1]; Case Study Seven, IV 500 mg two to three times weekly, after 6 weeks
  clinical response: dramatic improvement in response to others and the world around them
[1]; Case Study Seven, IV lipid exchange 250 mg followed by 0.3 cc leucovorin and 1200 mg GSH, once weekly
  clinical response: positive responsive
[1]; Case Study Seven, bolus dosing
  clinical response: increased language and awareness
[1]; Case Study Six, IV 500 mg twice weekly, after 6 weeks
  clinical response: improvement in fatigue, stable mood, return of focus, improvement in memory, clearance of orange color on palms/soles, less headaches, improved learning
[1]; Case Study Six, IV lipid exchange 250 mg once weekly with supplementation and diet
  clinical response: responsive
[1]; Case Study Six, bolus 1.5 grams in D5W dripped over 2 hours followed by glutathione
  clinical response: improved cognition, increased circulation, improved eye contact and more demonstrative, loving behavior
[1]; Case Study Six, bolus 3 grams dripped over 4 hours
  tolerability: well tolerated

## CCCC(=O)[O-].[Na+] [sodium butyrate]
[5]
  acetylation of nuclear histone in neural tissues: increased acetylation of nuclear histone in neural tissues
  neurological phenotypes: successfully ameliorated neurological phenotypes
